In US20260001914A1, “MACROCYCLIC PEPTIDES TARGETING KRAS” (Merck Sharp & Dohme LLC, priority 2022, published 2026):
*1 amine or outer side, *2 acyl side, *3 side chain or, on linkers, in order; H or OH if unused. Where a SMILES comes first, the peptide text is derived from it. Bridges are numbered along the chain shown (N, C = ends). [ ]: non-standard residue; d: D form. X48 = CCCC[C@@H](/C=C\[C@@H](Cc1cccnc1)C(=O)[*:2])N[*:1]; Phe(4-guanidino) = N=C(N)Nc1ccc(C[C@H](N)C(=O)O)cc1; X23 = O=C([C@H](Cc1ccc(C(F)(F)F)nc1)N[*:1])[*:2]; Ala(pyrimidin-5-yl) = N[C@@H](Cc1cncnc1)C(=O)O; X45 = CN([C@@H](Cc1ccncc1F)C(=O)[*:2])[*:1]; NMeHis(τ-Me) = CN[C@@H](Cc1cn(C)cn1)C(=O)O; X25 = O=C([C@H](Cc1ccc(F)nc1)N[*:1])[*:2]; X27 = Cc1ccc(C[C@H](N[*:1])C(=O)[*:2])cn1; X46 = O=C([C@H](Cc1cccnc1F)N[*:1])[*:2]; NMeAha = CN[C@@H](CCN=[N+]=[N-])C(=O)O; Phe(3-Me) = Cc1cccc(C[C@H](N)C(=O)O)c1; X32 = CS(=O)(=O)CCCN(CC(=O)[*:2])[*:1]; X47 = O=C([C@H](Cc1ccoc1)N[*:1])[*:2]; Phe(2-F) = N[C@@H](Cc1ccccc1F)C(=O)O; X31 = O=C([C@H](CCC1CC1)N[*:1])[*:2]; Abu(4,4-F2) = N[C@@H](CC(F)F)C(=O)O; NMe3Pal = CN[C@@H](Cc1cccnc1)C(=O)O; NMeY = CN[C@@H](Cc1ccc(O)cc1)C(=O)O; X1 = O=C(C12CC(CN[*:1])(C1)C2)[*:2]; X12 = CC(=O)NCCCN(CC(=O)[*:2])[*:1]; Ala(cPr) = N[C@@H](CC1CC1)C(=O)O; NMeF = CN[C@@H](Cc1ccccc1)C(=O)O; PhLac = O=C(O)[C@@H](O)Cc1ccccc1; 3Pal = N[C@@H](Cc1cccnc1)C(=O)O; Ahp(2) = CCCCC[C@H](N)C(=O)O; Cba = N[C@@H](CC1CCC1)C(=O)O; hLeu = CC(C)CC[C@H](N)C(=O)O; αMeC = C[C@](N)(CS)C(=O)O; NMeA = CN[C@@H](C)C(=O)O; Nle = CCCC[C@H](N)C(=O)O; Nva = CCC[C@H](N)C(=O)O

What follows are compounds tested against phosphorylation levels of ERK1/2 in AsPC-1 (homozygous KRAS-G12D) cells (Homo sapiens, UniProt P01116, G12D) (assay: Cellular phospho-ERK assay in AsPC-1 cells (Alpha Screen), assay medium without fetal bovine serum). Conditions: phospho-ERK AlphaScreen, 18 h.
Assay type: cell-based
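Note: signal taken as phospho-ERK over total ERK per well, both detected in one multiplex bead assay, EC50 from four-parameter logistic fit of dose-response curves.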
Method: Assay plate was incubated at 37° C. 5% CO2 for the indicated length of time. […] Phosphorylated ERK and total ERK levels were detected by Alpha SureFire Ultra Multiplex pERK kit (PerkinElmer MPSU-PTERK) using 5 μL, acceptor bead mix and 5 μL donor bead mix, both prepared following the manufacturer's protocol. Plates were sealed using aluminum sealing tape (Costar 07-200-683) during incubation at ambient temperature with constant shaking at 300 rpm for 1 h (both acceptor and donor). Assay plates were read on a Envision Xcite Multilabel Reader (PerkinElmer 1040900) at ambient temperature, with emission at 535 nm (Total ERK) and emission at 615 nm (Phospho ERK). Ratio of pERK vs total ERK in each well was used as the final readout. Dose response curves and EC50 were analyzed using a 4-parameter logistic equation in GraphPad Prism software.

Sequence of phosphorylation levels of ERK1/2 in AsPC-1 (homozygous KRAS-G12D) cells (P01116 1-186 G12D): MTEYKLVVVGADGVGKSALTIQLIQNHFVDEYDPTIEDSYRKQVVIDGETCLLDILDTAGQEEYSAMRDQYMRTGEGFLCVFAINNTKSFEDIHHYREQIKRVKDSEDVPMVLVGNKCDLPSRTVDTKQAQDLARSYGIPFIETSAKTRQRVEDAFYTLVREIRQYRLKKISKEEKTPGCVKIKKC

| SMILES | EC50 [µM] |
| --- | --- |
| CCCC[C@@H]1NC(=O)[C@H](Cc2cccnc2)NC(=O)[C@H](CCN=[N+]=[N-])N(C)C(=O)[C@H](Cc2ccccc2)OC(=O)C23CC(CNC(=O)[C@H](Cc4cccnc4)N(C)C(=O)[C@H](CCCC)NC(=O)[C@H](Cc4ccccc4F)NC1=O)(C2)C3 [compound 249, cyclo(FLac-NMeDabN3-3Pal-Nle-Phe2F-Nle-NMe3Pal-amBCP)] (cyclo([3Pal][Nle][Phe(2-F)][Nle][NMe3Pal][X1][PhLac][NMeAha])) | 3.95 |
| CCCC[C@@H]1NC(=O)[C@H](Cc2cccnc2)NC(=O)[C@H](C)N(C)C(=O)[C@H](Cc2ccccc2)OC(=O)C23CC(CNC(=O)[C@H](Cc4cccnc4)N(C)C(=O)[C@H](CCC)NC(=O)[C@H](Cc4ccccc4F)NC1=O)(C2)C3 [compound 116, cyclo(FLac-NMeA-3Pal-Nle-Phe2F-Nva-NMe3Pal-amBCP)] (cyclo([3Pal][Nle][Phe(2-F)][Nva][NMe3Pal][X1][PhLac][NMeA])) | > 50.8 |
| CCCCC[C@@H]1NC(=O)[C@H](Cc2ccoc2)NC(=O)[C@H](CC2CCC2)NC(=O)[C@H](Cc2cccnc2)NC(=O)[C@H](CCCNC(=N)N)NC(=O)[C@H](Cc2ccccc2)NC(=O)CSC[C@@](C)(C(N)=O)NC(=O)[C@H](Cc2ccccc2)N(C)C1=O [compound 374, cyclo(F-R-3Pal-cBuA-Ala3Fur-Ahp-NMeF-aMeCl-ClAc)] ({CH2CO}-FR[3Pal][Cba][X47][Ahp(2)][NMeF][αMeC]-NH2; thioether N-8) | > 50.8 |
| CCCC[C@@H]1NC(=O)[C@H](Cc2cncnc2)NC(=O)[C@H](C)N(C)C(=O)[C@H](Cc2ccccc2)OC(=O)C23CC(CNC(=O)[C@H](Cc4ccc(OC)cc4)N(C)C(=O)[C@H](CCCC)NC(=O)[C@H](Cc4ccccc4F)NC1=O)(C2)C3 [compound 175, cyclo(FLac-NMeA-PyrimAla-Nle-Phe2F-Nle-NMeYOMe-amBCP)] (cyclo([NMeA][Ala(pyrimidin-5-yl)][Nle][Phe(2-F)][Nle][NMeY](Me)[X1][PhLac])) | 0.439 |
| CC(C)CC[C@@H]1NC(=O)[C@H](Cc2ccccc2F)NC(=O)[C@H](CC2CC2)NC(=O)[C@H](Cc2cncnc2)NC(=O)[C@H](C)N(C)C(=O)[C@H](Cc2ccccc2)OC(=O)C23CC(CNC(=O)[C@H](Cc4ccncc4F)N(C)C1=O)(C2)C3 [compound 337, cyclo(FLac-NMeA-PyrimAla-cPrA-Phe2F-hL-NMe4Pal2F-amBCP)] (cyclo([Ala(cPr)][Phe(2-F)][hLeu][X45][X1][PhLac][NMeA][Ala(pyrimidin-5-yl)])) | 3.35 |
| CCCC[C@@H]1NC(=O)[C@H](Cc2cccnc2)NC(=O)[C@H](C)N(C)C(=O)[C@H](Cc2cccc(C)c2)NC(=O)C23CC(CNC(=O)[C@H](Cc4cccnc4)N(C)C(=O)[C@H](CCCC)NC(=O)[C@H](Cc4ccccc4F)NC1=O)(C2)C3 [compound 166, cyclo(Phe3Me-NMeA-3Pal-Nle-Phe2F-Nle-NMe3Pal-amBCP)] (cyclo([3Pal][Nle][Phe(2-F)][Nle][NMe3Pal][X1][Phe(3-Me)][NMeA])) | 32.3 |
| CCCCC[C@@H]1NC(=O)[C@H](Cc2ccc(OC)cc2)NC(=O)[C@H](CC2CCC2)NC(=O)[C@H](Cc2ccc(NC(=N)N)cc2)NC(=O)CN(CCCNC(C)=O)C(=O)[C@H](Cc2ccccc2)NC(=O)CSC[C@@](C)(C(N)=O)NC(=O)[C@H](Cc2ccccc2)N(C)C1=O [compound 387, cyclo(F-AcApG-Phe4Gn-cBuA-TyrOMe-Ahp-NMcF-aMeCl-ClAc)] ({CH2CO}-F[X12][Phe(4-guanidino)][Cba]Y(Me)[Ahp(2)][NMeF][αMeC]-NH2; thioether N-8) | > 50.8 |
| CCCCC[C@@H]1NC(=O)[C@H](Cc2ccc(OC)cc2)NC(=O)[C@H](CC2CCC2)NC(=O)[C@H](Cc2cccnc2)NC(=O)[C@H](CCCNC(=N)N)NC(=O)[C@H](Cc2ccccc2)NC(=O)CSC[C@@](C)(C(N)=O)NC(=O)[C@H](Cc2cn(C)cn2)N(C)C1=O [compound 378, cyclo(F-R-3Pal-cBuA-TyrOMe-Ahp-NMeHis1Me-aMeCl-ClAc)] ({CH2CO}-FR[3Pal][Cba]Y(Me)[Ahp(2)][NMeHis(τ-Me)][αMeC]-NH2; thioether N-8) | > 50.8 |
| CCCC[C@@H]1NC(=O)[C@H](Cc2cccnc2F)NC(=O)[C@H](C)N(C)C(=O)[C@H](Cc2ccccc2)OC(=O)C23CC(CNC(=O)[C@H](Cc4cccnc4)N(C)C(=O)[C@H](CCCC)NC(=O)[C@H](Cc4ccccc4F)NC1=O)(C2)C3 [compound 117, cyclo(FLac-NMeA~3Pal2F-Nle-Phe2F-Nle-NMe3Pal-amBCP)] (cyclo([NMe3Pal][X1][PhLac][NMeA][X46][Nle][Phe(2-F)][Nle])) | 50.2 |
| C[C@H]1C(=O)N[C@@H](Cc2cncnc2)C(=O)N[C@@H](CC2CC2)C(=O)N[C@@H](Cc2ccccc2F)C(=O)N[C@@H](CCC2CC2)C(=O)N(C)[C@@H](Cc2ccccc2)C(=O)NCC23CC(C2)(C3)C(=O)O[C@@H](Cc2ccccc2)C(=O)N1C [compound 114, cyclo(FLac-NMeA-PyrimAla-cPrA-Phe2F-hcPrA-NMeF-amBCP)] (cyclo([Ala(cPr)][Phe(2-F)][X31][NMeF][X1][PhLac][NMeA][Ala(pyrimidin-5-yl)])) | 0.615 |
| CCCCC[C@@H]1NC(=O)[C@H](Cc2ccc(OC)cc2)NC(=O)[C@H](CC2CCC2)NC(=O)[C@H](Cc2ccc(=O)[nH]c2)NC(=O)[C@H](CCCNC(=N)N)NC(=O)[C@H](Cc2ccccc2)NC(=O)CSC[C@@](C)(C(N)=O)NC(=O)[C@H](Cc2ccccc2)N(C)C1=O [compound 369, cyclo(F-R-4CO3Pal-cBuA-TyrOMe-Abp-NMeF-aMeCl-ClAc)] | > 50.8 |
| CCCC[C@@H]1NC(=O)[C@H](Cc2cccnc2)NC(=O)[C@H](C)N(C)C(=O)[C@H](Cc2ccc(F)nc2)NC(=O)C23CC(CNC(=O)[C@H](Cc4cccnc4)N(C)C(=O)[C@H](CCCC)NC(=O)[C@H](Cc4ccccc4F)NC1=O)(C2)C3 [compound 165, cyclo(4F3Pal-NMeA-3Pal-Nle-Phe2F-Nle-NMe3Pal-amBCP)] (cyclo([3Pal][Nle][Phe(2-F)][Nle][NMe3Pal][X1][X25][NMeA])) | > 50.8 |
| CCCC[C@@H]1NC(=O)[C@H](Cc2cccnc2)NC(=O)[C@H](C)N(C)C(=O)[C@H](Cc2ccccc2)NC(=O)C23CC(CNC(=O)[C@H](Cc4cccnc4)N(C)C(=O)[C@H](CCCC)NC(=O)[C@H](Cc4ccccc4F)NC1=O)(C2)C3 [compound 162, cyclo(F-NMeA-3Pal-Nle-Phe2F-Nle-NMe3Pal-amBCP)] (cyclo(F[NMeA][3Pal][Nle][Phe(2-F)][Nle][NMe3Pal][X1])) | > 50.8 |
| CCCC[C@@H]1NC(=O)[C@H](Cc2cccnc2)NC(=O)[C@H](C)N(C)C(=O)[C@H](Cc2ccc(C)nc2)NC(=O)C23CC(CNC(=O)[C@H](Cc4cccnc4)N(C)C(=O)[C@H](CCCC)NC(=O)[C@H](Cc4ccccc4F)NC1=O)(C2)C3 [compound 164, cyclo(4Me3Pal-NMeA-3Pal-Nle-Phe2F-Nle-NMe3Pal-amBCP)] (cyclo([3Pal][Nle][Phe(2-F)][Nle][NMe3Pal][X1][X27][NMeA])) | > 50.8 |
| CCCCC[C@@H]1NC(=O)[C@H](Cc2ccc(OC)cc2)NC(=O)[C@H](CC2CCC2)NC(=O)[C@H](Cc2cncnc2)NC(=O)[C@H](CCCNC(=N)N)NC(=O)[C@H](Cc2ccccc2)NC(=O)CSC[C@@](C)(C(N)=O)NC(=O)[C@H](Cc2ccccc2)N(C)C1=O [compound 367, cyclo(F-R-PyrimAla-cBuA-TyrOMe-Ahp-NMeF-aMeCl-ClAc)] ({CH2CO}-FR[Ala(pyrimidin-5-yl)][Cba]Y(Me)[Ahp(2)][NMeF][αMeC]-NH2; thioether N-8) | > 50.8 |
| CC(C)CC[C@@H]1NC(=O)[C@H](Cc2ccccc2F)NC(=O)[C@H](CC(F)F)NC(=O)[C@H](Cc2cncnc2)NC(=O)[C@H](C)N(C)C(=O)[C@H](Cc2ccccc2)OC(=O)C23CC(CNC(=O)[C@H](Cc4ccccc4)N(C)C1=O)(C2)C3 [compound 304, cyclo(FLac-NMeA-PyrimAla-AbuF2-Phe2F-hL-NMeF-amBCP)] (cyclo([NMeA][Ala(pyrimidin-5-yl)][Abu(4,4-F2)][Phe(2-F)][hLeu][NMeF][X1][PhLac])) | 1.87 |
| CCCC[C@@H]1NC(=O)[C@H](Cc2cccnc2)NC(=O)[C@H](CCCNC(=N)N)NC(=O)[C@H](Cc2ccccc2)OC(=O)C23CC(CNC(=O)[C@H](Cc4ccccc4)N(C)C(=O)[C@H](CCCC)NC(=O)[C@H](Cc4ccccc4F)NC1=O)(C2)C3 [compound 212, cyclo(FLac-R-3Pal-Nle-Phe2F-Nle-NMeF-amBCP)] (cyclo([PhLac]R[3Pal][Nle][Phe(2-F)][Nle][NMeF][X1])) | 39.4 |
| CCCCC[C@@H]1NC(=O)[C@H](Cc2ccc(OC)cc2)NC(=O)[C@H](CC2CCC2)NC(=O)[C@H](Cc2ccc(N3CCC[C@@H]3CN)cc2)NC(=O)[C@H](CCCNC(=N)N)NC(=O)[C@H](Cc2ccccc2)NC(=O)CSC[C@@](C)(C(N)=O)NC(=O)[C@H](Cc2ccccc2)N(C)C1=O [compound 391, cyclo(F-R~Phe4RamPyrr-cBuA-TyrOMe-Abp-NMeF-aMeCl-ClAc)] | > 50.8 |
| CCCC[C@H]1/C=C\[C@@H](Cc2cccnc2)C(=O)NCC23CC(C2)(C3)C(=O)O[C@@H](Cc2ccccc2)C(=O)N(C)[C@@H](C)C(=O)N[C@@H](Cc2cncnc2)C(=O)N[C@@H](CCCC)C(=O)N[C@@H](Cc2ccccc2F)C(=O)N1 [SEQ ID NO: 137, cyclo(FLac-NMeA- PyrimAla-Nle-Phe2F- Nlecalken3Pal-amBCP)] (cyclo([NMeA][Ala(pyrimidin-5-yl)][Nle][Phe(2-F)][X48][X1][PhLac])) | 11.2 |
| CCCC[C@@H]1NC(=O)[C@H](Cc2ccc(C(F)(F)F)nc2)NC(=O)[C@H](CCN=[N+]=[N-])N(C)C(=O)[C@H](Cc2ccccc2)OC(=O)C23CC(CNC(=O)[C@H](Cc4cccnc4)N(C)C(=O)[C@H](CCCC)NC(=O)[C@H](Cc4ccccc4F)NC1=O)(C2)C3 [compound 241, cyclo(FLac-NMeDabN3-4CF33Pal-Nle-Phe2F-Nle-NMe3Pal-amBCP)] (cyclo([NMe3Pal][X1][PhLac][NMeAha][X23][Nle][Phe(2-F)][Nle])) | 6.12 |
| CCCCC[C@@H]1NC(=O)[C@H](Cc2ccc(OC)cc2)NC(=O)[C@H](CC2CCC2)NC(=O)[C@H](Cc2ccc(NC(=N)N)cc2)NC(=O)CN(CCCS(C)(=O)=O)C(=O)[C@H](Cc2ccccc2)NC(=O)CSC[C@@](C)(C(N)=O)NC(=O)[C@H](Cc2ccccc2)N(C)C1=O [compound 389, cyclo(F-Mspg-Phe4Gn-cBuA-TyrOMe-Ahp-NMeF-aMeCl-ClAc)] ({CH2CO}-F[X32][Phe(4-guanidino)][Cba]Y(Me)[Ahp(2)][NMeF][αMeC]-NH2; thioether N-8) | > 50.8 |
